Test results from patent publication US7598397B2, “Sulfonamide peri-substituted bicyclics for occlusive artery disease” (deCODE genetics ehf, priority 2004, dated 2009).
Like-named read-outs stand apart in the source and are kept apart here.

Legend:
[1] = target: T1, prostanoid EP3 receptors (Homo sapiens, UniProt P43115); assay: binding on prostanoid EP3 receptors (method of Abramovitz et al.); details: read-out: Activity (EP3 receptor binding, IC50 class)
T1 sequence (P43115 1-390): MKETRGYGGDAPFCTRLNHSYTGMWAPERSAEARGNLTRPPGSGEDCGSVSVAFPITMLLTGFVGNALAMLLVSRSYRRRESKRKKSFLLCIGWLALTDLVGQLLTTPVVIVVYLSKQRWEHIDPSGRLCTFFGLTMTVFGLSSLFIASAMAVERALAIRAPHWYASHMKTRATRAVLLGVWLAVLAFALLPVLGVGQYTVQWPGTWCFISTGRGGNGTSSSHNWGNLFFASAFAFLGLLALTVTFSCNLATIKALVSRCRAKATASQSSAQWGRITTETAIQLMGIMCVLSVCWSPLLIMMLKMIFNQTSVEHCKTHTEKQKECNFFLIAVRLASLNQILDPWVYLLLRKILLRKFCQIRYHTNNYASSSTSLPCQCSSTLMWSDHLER
Description: The compounds of the invention were assayed for their binding on prostanoid EP3 receptors according to the method of Abramovitz et al. [Bioch. Biophys.

[2] = test system: human platelets; assay: platelet aggregation in vitro, human platelets; assay type: cell-based; details: Serum % 50, read-out: IC50 (nM) for Test Compounds
Description: (§1) The compounds of the invention were assayed for their effects on platelet aggregation in vitro. In experiments with human platelets, whole blood was extracted from overnight-fasted human donors. Each experiment was performed with blood from single individual. In experiments with rodent platelets, whole blood was gathered from the heart of female mice or male rats under isofluran (Abbott) anaesthesia. Blood was pooled from two or ten individual rodents for each experiment in the case of rat and mouse experiments, respectively. In all cases, blood was collected into 3.8% sodium citrate tubes (Greiner Bio-one). Platelet-rich plasma (PRP) was obtained by centrifugation at 100×g for 15 min at 25° C. for humans, at 150×g for rats, or at 80×g for 10 min for mice. Platelet-poor plasma was obtained by centrifugation of the remaining blood at 2,400×g for 10 min at 25° C. After counting in an Autocounter (Model 920 EO, Swelab) platelets were diluted when necessary to the desired stock concentrations (200,000-300,000 platelets/μl) using 0.9% NaCl isotonic solution (Braun).
Platelet aggregation was determined by light absorbance using a platelet aggregometer with constant magnetic stirring (Model 490, Chronolog Cop., Havertown, Pa., USA), using a volume of 500 μl per cuvette. During the performance of the experiments, platelet solution was continually agitated by mild horizontal shaking. Collagen (Sigma) and PGE2 or sulprostone (Cayman Chemicals) were used as accelerants of platelet aggregation. Compounds used for this assay were dissolved and stored in a 100% DMSO solution. After dilution, the final DMSO concentration in the assay was lower than 0.1% v/v. […] Acceleration agents and EP3 test compounds were diluted in isotonic solution at the desired concentration. Sigmoidal non-lineal regression was used to calculate the concentration of test compound required to inhibit platelet aggregation by 50% (IC50). IC50 values of test compounds were calculated using GraphPad Prism 3.02 for Windows (GraphPad Software, San Diego Calif. USA). […]

[3] = test system: rat platelets; assay: platelet aggregation in vitro, rat platelets; assay type: cell-based; details: Serum % 20, read-out: IC50 (nM) for Test Compounds
Description: as §1
Platelet aggregation was determined by light absorbance using a platelet aggregometer with constant magnetic stirring (Model 490, Chronolog Cop., Havertown, Pa., USA), using a volume of 500 μl per cuvette. […] IC50 values of test compounds were calculated using GraphPad Prism 3.02 for Windows (GraphPad Software, San Diego Calif. USA). […]

[4] = test system: female C57BL/6 mice; assay: pulmonary thromboembolism induced by arachidonic acid (platelet aggregation in vivo); parameters: species or system mouse; details: 100 mg/kg orally, 30 min before arachidonic acid 30 mg/kg i.v.; survival one hour after challenge
Description: The compounds of the invention also were assayed for their effects on platelet aggregation in vivo. An in vivo test of platelet activation is the induction of pulmonary thromboembolism by arachidonic acid, a precursor of prostaglandin formation. Inhibitors of prostaglandin synthesis, e.g., a COX-1 inhibitor such as asprin, are protective in the assay. For the pulmonary thromboembolism assay, concious female C57BL/6 mice were dosed orally with the test compounds and 30 min later thromboembolism was induced by injection of arachidonic acid into a tail vein at a dose of 30 mg per kg body weight. Survival was evaluated one hour after the challenge with arachidonic acid, as mice that survive for that length of time usually recovered fully. The arachidonic acid injection was given via a lateral tail vein in a mouse that had been warmed briefly under a heat lamp (dilation of the tail veins using heat facilitates placing the injection). An insulin syringe, 0.5 mL (from Becton Dickinson) was used for dosing. The dose volume given of both the test compound and the arachidonic acid was adjusted to the weight of the mouse (the dose volume p.o. for test compounds and i.v. for arachidonic acid solution was 10 μL and 5 μL per gram body weight, respectively). The survival rate for mice treated with arachidonic acid only was 1 per 10 mice evaluated or 10%. Survival rates for mice treated with test compounds (100 mg/kg, orally) and then arachidonic acid are shown below in Table 4.

IC50 ([2]; agonist Sulprostone (100 nM) and collagen (0.125 ug.mL)) | Structure (SMILES) | IC50 [1] | IC50 ([3]; agonist PGE2 (940 nM) and collagen (2.0 ug.mL)) | IC50 ([3]; agonist Sulprostone (100 nM) and collagen (2.0 ug.mL)) | No. mice surviving/Total no. of mice evalauted [4] | Survival rate [4] | IC50 ([2]; Homo sapiens, agonist PGE2 (940 nM) and collagen (0.125 ug.mL)) | IC50 ([2]; Homo sapiens, agonist Sulprostone (100 nM) and collagen (0.125 ug.mL))
15.9 nM | CC12CCCC(C=CC(=O)NS(=O)(=O)c3cc(Cl)c(Cl)s3)=C1N(Cc1ccc3ccccc3c1)C(=O)C2 (stereo not drawn) [Compound P253] | < 1000 nM | – | – | – | – | – | –
– | Cc1cn(Cc2ccc(Cl)cc2Cl)c2c(C=CC(=O)NS(=O)(=O)c3cc(Cl)c(Cl)s3)cc(F)cc12 [Compound P067] | < 1000 nM | 304 nM | 87.8 nM | 15/22 | 68% | 5.15 nM | 9.21 nM
